A short description of series [1]: Concentration required for inhibition of human serine dependent Phospholipase A2.
The subject of series [2] is Platelet-activating factor acetylhydrolase (Rattus norvegicus). Briefly: Compound was tested for inhibition of Lipoprotein associated phospholipase A2 in rat. Particulars: concentration not given here.
Series [3] deals with Rattus norvegicus. The experiment in a line: Compound was tested for liver blood flow after intravenous administration in rat. It counts as functional.
Series [4] in a line: Rapid clearance after intravenous administration in rat was determined. The series is classed as ADME, organism-based. Particulars: blood, read-out: CLb.
The species entered for series [5] is Rattus norvegicus. The experiment in a line: Compound was tested for its percent CNS penetration in rat. The series is classed as functional, Central nervous system.
The species entered for series [6] is Homo sapiens. The experiment in a line: Compound was tested for inhibition of plasma enzyme in whole human plasma at concentration 100 nM. The series is classed as functional.

Where only a bound is given, the exact number is not on record here.

By IC50 is commonly meant the midpoint of a concentration-inhibition curve. A lower IC50 goes with higher potency. For `CCCCCCCCN(C)C(=O)Cn1cc(Cc2cnc(=O)n(CC(=O)N3CCN(C)CC3)c2)c(=O)nc1SCc1ccc(F)cc1`, the IC50 in series [1] is 3 nM.

Consider `CCCCCCCCN(C)C(=O)Cn1cc(Cc2cnc(=O)n(CC(=O)N3CCNC(=O)C3)c2)c(=O)nc1SCc1ccc(F)cc1`, for which the half-maximal inhibitory concentration (IC50) in series [1] was found to be 2 nM.

The term inhibition denotes the percentage by which the read-out fell short of the control. Higher therefore signals strong suppression. Consider `CCCCCCCCCCCCN(C)C(=O)Cn1cc(Cc2cnc(=O)n(CC(=O)O)c2)c(=O)nc1SCc1ccc(F)cc1`, for which inhibition in series [1] was half-maximal at 1 nM (IC50). In addition, the inhibition in series [2] came out at 83%. Moreover, the Activity in series [3] is reported as 85%; in series [5] it was 37%. Moreover, the clearance in series [4] was found to be 76 mL/min/kg.

`CCCCCCCCCCCCN(C)C(=O)Cn1cc(Cc2cnc(=O)n(CC(=O)NC)c2)c(=O)nc1SCc1ccc(F)cc1`: the IC50 in series [1] is 0.4 nM. Also, in series [6], the inhibition at 0.1 µM is 80%.

On to `CCCCCCCCN(C)C(=O)Cn1cc(Cc2cnc(=O)n(CC(=O)N3CCOCC3)c2)c(=O)nc1SCc1ccc(F)cc1`, for which the IC50 in series [1] was 10 nM.

The compound `CCCCCCCCNC(=O)Cn1cc(Cc2cncnc2)c(=O)nc1SCc1ccc(F)cc1` gave an IC50 in series [1] of 7 nM.

Compound `CCCCCCCCCCCCN(C)C(=O)Cn1cc(Cc2cnc(OC)nc2)c(=O)nc1SCc1ccc(F)cc1` had an IC50 in series [1] of 1 nM.

For the compound `CCCCCCCCCCCCN(C)C(=O)Cn1cc(Cc2cnc(=O)n(CC(=O)OCC)c2)c(=O)nc1SCc1ccc(F)cc1`, the IC50 in series [1] worked out at 4 nM.

In turn, `CCCCCCCCN(C)C(=O)Cn1cc(Cc2cnc(=O)n(CC(=O)N3CCN(C(C)=O)CC3)c2)c(=O)nc1SCc1ccc(F)cc1` came in with an IC50 in series [1] of 5 nM.

Compound `CCCCCCCCN(C)C(=O)Cn1cc(Cc2cnc(=O)n(CC)c2)c(=O)nc1SCc1ccc(F)cc1` registered an IC50 in series [1] of 20 nM.

For the compound `CCCCCCCCN(C)C(=O)Cn1cc(Cc2cnc(OCc3ccccc3)nc2)c(=O)nc1SCc1ccc(F)cc1`, half-maximal inhibition in series [1] (IC50) was put at 7 nM.

The compound `CCCCCCCCN(C)C(=O)Cn1cc(Cc2cnc(=O)n(CC(=O)NCCO)c2)c(=O)nc1SCc1ccc(F)cc1` showed an IC50 in series [1] of 8 nM.

In turn, `CCCCCCCCCCCCN(C)C(=O)Cn1cc(Cc2cnc(=O)n(CCO)c2)c(=O)nc1SCc1ccc(F)cc1` showed an IC50 in series [1] of 1 nM.

On to `CCCCCCCCCCCCN(C)C(=O)Cn1cc(Cc2cnc(O)nc2)c(=O)nc1SCc1ccc(F)cc1`, for which the IC50 in series [1] is 0.9 nM.

In series [5], `CCCCCCCCCCCCN(C)C(=O)Cn1cc(Cc2cncnc2)c(=O)nc1SCc1ccc(F)cc1` gave an Activity of under 2%.

Compound `CCCCCCCCN(C)C(=O)Cn1cc(Cc2cnc(=O)n(CC(=O)O)c2)c(=O)nc1SCc1ccc(F)cc1` showed an IC50 in series [1] of 14 nM. The compound also gave an Activity in series [5] of 10%.

Compound `CCCCCCCCN(C)C(=O)Cn1cc(Cc2cnc(=O)n(CCO)c2)c(=O)nc1SCc1ccc(F)cc1` gave an IC50 in series [1] of 5 nM.

`CCCCCCCCCCCCN(C)C(=O)Cn1cc(Cc2cnc(=O)n(CC(=O)N3CCOCC3)c2)c(=O)nc1SCc1ccc(F)cc1` yielded a 50% inhibitory concentration (IC50) in series [1] of 0.7 nM. In addition, 0.1 µM produced 80% inhibition in series [6]. The compound also gave an Activity in series [5] of under 7%.

Consider `CCCCCCCCN(C)C(=O)Cn1cc(Cc2cnc(O)nc2)c(=O)nc1SCc1ccc(F)cc1`, for which inhibition in series [1] was half-maximal at 4 nM (IC50). Further, the Activity in series [5] is reported as 7%.

The compound `CCCCCCCCCCCCN(C)C(=O)Cn1cc(Cc2cnc(=O)n(CC(=O)NCCO)c2)c(=O)nc1SCc1ccc(F)cc1` displayed an IC50 in series [1] of 0.6 nM. Moreover, in series [6], the inhibition at 0.1 µM came to 79%.

`CCCCCCCCCCCCN(C)C(=O)Cn1cc(Cc2cnc(=O)n(C)c2)c(=O)nc1SCc1ccc(F)cc1`: in series [1], the IC50 was found to be 5 nM.

`CCCCCCCCN(C)C(=O)Cn1cc(Cc2cnc(=O)n(CC(=O)OCC)c2)c(=O)nc1SCc1ccc(F)cc1` registered an IC50 in series [1] of 75 nM.

In series [1], `CCCCCCCCN(C)C(=O)Cn1cc(Cc2cnc(=O)n(C)c2)c(=O)nc1SCc1ccc(F)cc1` yielded an IC50 of 27 nM.

As for `CCCCCCCCN(C)C(=O)Cn1cc(Cc2cnc(=O)n(CC(=O)NCCC)c2)c(=O)nc1SCc1ccc(F)cc1`, in series [1], the concentration for half-maximal inhibition (IC50) is 11 nM.

`CCCCCCCCN(C)C(=O)Cn1cc(Cc2cnc(OC)nc2)c(=O)nc1SCc1ccc(F)cc1` registered an IC50 in series [1] of 4 nM.

As to `CCCCCCCCN(C)C(=O)Cn1cc(Cc2cnc(OCC)nc2)c(=O)nc1SCc1ccc(F)cc1`, the IC50 in series [1] amounted to 3 nM.

Turning to `CCCCCCCCN(C)C(=O)Cn1cc(Cc2cnc(=O)n(CC(=O)NC)c2)c(=O)nc1SCc1ccc(F)cc1`, the IC50 in series [1] was 6 nM. In addition, the Activity in series [5] is on record as under 7%.

In series [1], `CCCCCCCCN(C)C(=O)Cn1cc(Cc2cncnc2)c(=O)nc1SCc1ccc(F)cc1` displayed an IC50 of 15 nM.

`CCCCCCCCCCCCN(C)C(=O)Cn1cc(Cc2cnc(=O)n(CC(=O)N3CCNC(=O)C3)c2)c(=O)nc1SCc1ccc(F)cc1` registered an IC50 in series [1] of 0.4 nM.
